In US9296741B2, “Bromodomain inhibitors” (priority 2012, dated 2016) one finds Ki and half-life data, which are given here for 15 molecules.

Where only a bound is given, the exact number is not on record here.

In data set [1] the target is human BRD4 first bromodomain (BDI_K57-E168) (Homo sapiens (Human), UniProt O60885). The data set is described as follows: TR-FRET bromodomain binding assay, BRD4 first bromodomain.
Data set [2] concerns the target human BRD4 second bromodomain (BDII_E352-M457) (Homo sapiens (Human), UniProt O60885). The data set is described as follows: TR-FRET bromodomain binding assay, BRD4 second bromodomain. In general terms: Time-resolved FRET reads energy transfer from a long-lived donor to a nearby acceptor.
Data set [3] in a line: Human liver microsome stability assay. Type of data set: in vitro ADME. As to conditions: both sexes. (In general: Liver microsomes are vesicles of endoplasmic reticulum, rich in cytochrome P450 enzymes.)
Data set [4] can be described thus: Rat liver microsome stability assay. The class given is in vitro ADME. The note with it: rat liver microsomes (male Sprague-Dawley), 0.5 μM test compound, 0.25 mg/mL microsomal protein, pH 7.4, 37° C.; read-out: Stability in rat liver microsomes (t1/2 in minutes).
The nature of data set [5]: Mouse liver microsome stability assay. The class given is in vitro ADME.
The mark [6] stands for this setting: male, CD1, mouse, microsomes, pH 7.4.

The term Ki denotes a measure of affinity in units of concentration, obtained from inhibition or displacement. With `Cn1cc(-c2cc(S(C)(=O)=O)ccc2OCCN2CCCC2=O)c2cc[nH]c2c1=O` [Example 232, 6-methyl-4-{5-(methylsulfonyl)-2-[2-(2-oxopyrrolidin-1-yl)ethoxy]phenyl}-1,6-dihydro-7H-pyrrolo[2,3-c]pyridin-7-one], the Ki amounted to 213 nM in data set [1] and 443 nM in data set [2]. In addition, the half-life at 0.5 μM in data set [3] (human, microsomes, pH 7.4) was 57 min; in data set [4], > 120 min; in data set [5] (setting [6]) it was > 120 min.

Regarding `Cn1cc(-c2cc(S(C)(=O)=O)ccc2Oc2cccc3ccncc23)c2cc[nH]c2c1=O` [Example 193, 4-[2-(isoquinolin-8-yloxy)-5-(methylsulfonyl)phenyl]-6-methyl-1,6-dihydro-7H-pyrrolo[2,3-c]pyridin-7-one], the Ki in data set [1] came to 70.4 nM; in data set [2] it was 13.6 nM. Further, the half-life at 0.5 μM in data set [3] (human, microsomes, pH 7.4) worked out at 11 min; in data set [4], 7 min; in data set [5] (setting [6]) it was 2 min.

Turning to `Cn1cc(-c2ccccc2C(=O)N2CCOCC2)c2cc[nH]c2c1=O` [Example 61, 6-methyl-4-[2-(morpholin-4-ylcarbonyl)phenyl]-1,6-dihydro-7H-pyrrolo[2,3-c]pyridin-7-one], the values for the Ki in data set [1] and in data set [2] were > 13000 nM and > 22200 nM, respectively. Also, the half-life at 0.5 μM in data set [3] (human, microsomes, pH 7.4) is > 120 min; in data set [4] it was > 120 min; in data set [5] (setting [6]), > 120 min.

With `Cn1cc(-c2cc(C3=CCNCC3)ccc2OCC2CC2)c2cc[nH]c2c1=O` [Example 340, 4-[2-(cyclopropylmethoxy)-5-(1,2,3,6-tetrahydropyridin-4-yl)phenyl]-6-methyl-1,6-dihydro-7H-pyrrolo[2,3-c]pyridin-7-one], the Ki in data set [1] turned out to be 942 nM; in data set [2], 1250 nM. In addition, the half-life at 0.5 μM in data set [3] (human liver microsomes, 0.5 μM test compound, 0.25 mg/mL microsomal protein, pH 7.4, 37° C., read-out: Stability in human liver microsomes (t1/2 in minutes)) is > 120 min; in data set [4], 4 min; in data set [5] (mouse liver microsomes (male CD1), 0.5 μM test compound, 0.25 mg/mL microsomal protein, pH 7.4, 37° C., read-out: Stability in mouse liver microsomes (t1/2 in minutes)) it was 9 min.

Take `Cn1cc(-c2cc(CN3CCCC3)ccc2OCC2CC2)c2cc[nH]c2c1=O` [Example 314, 4-[2-(cyclopropylmethoxy)-5-(pyrrolidin-1-ylmethyl)phenyl]-6-methyl-1,6-dihydro-7H-pyrrolo[2,3-c]pyridin-7-one]: the values for the Ki in data set [1] and in data set [2] were 1600 nM and 1290 nM, respectively. In addition, the half-life at 0.5 μM in data set [3] (human, microsomes, pH 7.4) was 81 min; in data set [4], 4 min; in data set [5] (setting [6]), 6 min.

`CCS(=O)(=O)Nc1cc(-c2cn(C)c(=O)c3[nH]ccc23)c(Oc2ccc(F)cc2F)cc1C#N` [Example 324, N-[2-cyano-4-(2,4-difluorophenoxy)-5-(6-methyl-7-oxo-6,7-dihydro-1H-pyrrolo[2,3-c]pyridin-4-yl)phenyl]ethanesulfonamide]: the results for the Ki in data set [1] and in data set [2] were 3.2 nM and 1.2 nM, respectively. The half-life at 0.5 μM in data set [3] (human, microsomes, pH 7.4) was > 120 min; in data set [4] it was > 120 min; in data set [5] (setting [6]), > 120 min.

As to `Cc1ccc(F)cc1Oc1ccc(S(C)(=O)=O)cc1-c1cn(C)c(=O)c2[nH]ccc12` [Example 187, 4-[2-(5-fluoro-2-methylphenoxy)-5-(methylsulfonyl)phenyl]-6-methyl-1,6-dihydro-7H-pyrrolo[2,3-c]pyridin-7-one], the results for the Ki in data set [1] and in data set [2] were 24.8 nM and 8.2 nM, respectively. Also, the half-life at 0.5 μM is 9 min in data set [3] (human, microsomes, pH 7.4); 4 min in data set [4]; 5 min in data set [5] (setting [6]).

For the molecule `C=C(C)c1cc2c(-c3cc(S(C)(=O)=O)ccc3Oc3ccc(F)cc3F)cn(C)c(=O)c2[nH]1` [Example 291, 4-[2-(2,4-difluorophenoxy)-5-(methylsulfonyl)phenyl]-6-methyl-2-(prop-1-en-2-yl)-1,6-dihydro-7H-pyrrolo[2,3-c]pyridin-7-one], the Ki in data set [1] worked out at 32.9 nM; in data set [2], 23.7 nM. Besides, the half-life at 0.5 μM in data set [3] (human, microsomes, pH 7.4) was found to be 16 min; in data set [4], 8 min; in data set [5] (setting [6]), 16 min.

For the molecule `CN(C)c1ccc(NC(=O)c2ccc(Oc3ccc(F)cc3F)c(-c3cn(C)c(=O)c4[nH]ccc34)c2)cc1` [Example 120, 4-(2,4-difluorophenoxy)-N-[4-(dimethylamino)phenyl]-3-(6-methyl-7-oxo-6,7-dihydro-1H-pyrrolo[2,3-c]pyridin-4-yl)benzamide], the results for the Ki in data set [1] and in data set [2] were 190 nM and 304 nM, respectively. Further, the half-life at 0.5 μM amounted to 19 min in data set [3] (human, microsomes, pH 7.4); 12 min in data set [4]; 10 min in data set [5] (setting [6]).

Turning to `Cn1cc(-c2cc(S(C)(=O)=O)ccc2Oc2ccc3c(c2)CCC3)c2cc[nH]c2c1=O` [Example 191, 4-[2-(2,3-dihydro-1H-inden-5-yloxy)-5-(methylsulfonyl)phenyl]-6-methyl-1,6-dihydro-7H-pyrrolo[2,3-c]pyridin-7-one], the results for the Ki in data set [1] and in data set [2] were 17.8 nM and 8.8 nM, respectively. Besides, the half-life at 0.5 μM is 7 min in data set [3] (human, microsomes, pH 7.4); 6 min in data set [4]; 2 min in data set [5] (setting [6]).

For the molecule `Cn1cc(-c2cc(C(=O)NCc3ccc(OC(F)(F)F)cc3)ccc2Oc2ccc(F)cc2F)c2cc[nH]c2c1=O` [Example 126, 4-(2,4-difluorophenoxy)-3-(6-methyl-7-oxo-6,7-dihydro-1H-pyrrolo[2,3-c]pyridin-4-yl)-N-[4-(trifluoromethoxy)benzyl]benzamide], the Ki in data set [1] turned out to be 2000 nM; in data set [2] it was 768 nM. The half-life at 0.5 μM in data set [3] (human, microsomes, pH 7.4) is 100 min; in data set [4], 21 min; in data set [5] (setting [6]), 25 min.

With `Cn1cc(-c2cc(S(C)(=O)=O)ccc2Oc2cc(F)cc(F)c2)c2cc[nH]c2c1=O` [Example 176, 4-[2-(3,5-difluorophenoxy)-5-(methylsulfonyl)phenyl]-6-methyl-1,6-dihydro-7H-pyrrolo[2,3-c]pyridin-7-one], the Ki in data set [1] stood at 21.3 nM; in data set [2] it was 6 nM. For the same molecule, the half-life at 0.5 μM in data set [3] (human, microsomes, pH 7.4) stood at 48 min; in data set [4] it was 8 min; in data set [5] (setting [6]), 29 min.

As for `Cc1ncccc1Oc1ccc(S(C)(=O)=O)cc1-c1cn(C)c(=O)c2[nH]ccc12` [Example 179, 6-methyl-4-{2-[(2-methylpyridin-3-yl)oxy]-5-(methylsulfonyl)phenyl}-1,6-dihydro-7H-pyrrolo[2,3-c]pyridin-7-one], the Ki in data set [1] worked out at 22.5 nM; in data set [2], 16.5 nM. Moreover, the half-life at 0.5 μM was determined as 80 min in data set [3] (human, microsomes, pH 7.4); 55 min in data set [4]; 34 min in data set [5] (setting [6]).

As for `Cn1cc(-c2cc(S(C)(=O)=O)ccc2Oc2cccc3nsnc23)c2cc[nH]c2c1=O` [Example 171, 4-[2-(2,1,3-benzothiadiazol-4-yloxy)-5-(methylsulfonyl)phenyl]-6-methyl-1,6-dihydro-7H-pyrrolo[2,3-c]pyridin-7-one], the inhibition constant Ki in data set [1] was found to be 13.8 nM; in data set [2] it was 10.3 nM. Further, the half-life at 0.5 μM in data set [3] (human, microsomes, pH 7.4) amounted to 15 min; in data set [4] it was 13 min; in data set [5] (setting [6]) it was 9 min.

As for `Cn1cc(-c2cc(S(C)(=O)=O)ccc2Oc2ccc3ccncc3c2)c2cc[nH]c2c1=O` [Example 172, 4-[2-(isoquinolin-7-yloxy)-5-(methylsulfonyl)phenyl]-6-methyl-1,6-dihydro-7H-pyrrolo[2,3-c]pyridin-7-one], the Ki in data set [1] turned out to be 13.3 nM; in data set [2], 5.9 nM. Further, the half-life at 0.5 μM in data set [3] (human, microsomes, pH 7.4) came to 9 min; in data set [4], 15 min; in data set [5] (setting [6]), 7 min.
